# Measurements as given in patent US8614251B2, “Crystalline form VI of agomelatine, preparation method and application thereof” (Les Laboratories Servier, priority 2009, dated 2013).
# Columns and labels:
# [1] = Stability of crystalline forms on storage at 40° C. for 20 days, purity by HPLC; assay type: physicochemical; settings: for Purity after storage in the thermostatically controlled containers for 20 days / Purity before storage: HPLC
# Description: Crystalline forms II, III, IV and VI are respectively placed in a thermostatically controlled container at 40° C. for 20 days. The stability of the said crystalline forms is assessed by high performance liquid chromatography.
# Chromatographic conditions: octadecylsilane bonded silica as filler; a mixed solution of 10 mM/L phosphate buffer (adjusted to pH 7.0 by sodium hydroxide) and acetonitrile in 2:7 by volume as mobile phase; column temperature 40° C.; detection wavelength 220 nm. The purity is determined using an internal standard method.
# The crystalline forms II, III, IV and VI were formulated with the mobile phase as 1 mg/mL solution. 10 μL of each of the solution was removed and injected into the liquid chromatograph. The chromatograms were recorded.
# The assay was carried out using an external standard method as described under Purity Measurement of the Sample.
# [2] = Solubility measurement in water by HPLC, external standard method; assay type: physicochemical
# Description: 3. Solubility Measurement in Water
# The measurement was carried out by HPLC using an external standard method.
Structure (SMILES),"Purity after storage in the thermostatically controlled containers for 20 days ([1]; 40° C., 20 days) [%]",Purity before storage [1] [%],"Stability compared with the existing crystalline forms ([1]; 40° C., 20 days)",Solubility compared with the existing crystalline forms [2],solubility ([2]; HPLC) [µg/mL]
"COc1ccc2cccc(CCNC(C)=O)c2c1 [crystalline form II, N-[2-(7-methoxy-1-naphthyl)ethyl]acetamide]",99.24,99.79,,,
"COc1ccc2cccc(CCNC(C)=O)c2c1 [crystalline form III, N-[2-(7-methoxy-1-naphthyl)ethyl]acetamide]",99.10,99.77,,,
"COc1ccc2cccc(CCNC(C)=O)c2c1 [crystalline form VI, N-[2-(7-methoxy-1-naphthyl)ethyl]acetamide]",99.55,99.60,superior,superior,1240
"COc1ccc2cccc(CCNC(C)=O)c2c1 [crystalline form IV, N-[2-(7-methoxy-1-naphthyl)ethyl]acetamide]",99.54,99.82,,,
